Results on one molecule are retold here after patent publication US12011439B2, “Combination therapy using C—C chemokine receptor 4 (CCR4) antagonists and one or more immune checkpoint inhibitors” (CHEMOCENTRYX, INC., priority 2018, dated 2024).

Data set [1] can be described thus: Plasma compound concentrations at trough in the KCM study. It is filed as in vivo, mice. The settings on record: day 12, KCM model.
The subject of another data set is KCM cells. The data set can be described thus: KCM orthotopic pancreatic tumor model. It is filed as in vivo, mice. The source says: The subcutaneous CT26 colon cancer model and the orthotopic KCM pancreatic cancer model were used to assess the effects of a CCR4 inhibitor, Compound 1, in combination with anti-CTLA-4 antibody (BioXcell: anti-mouse CTLA-4 (Clone: 9H10), raised in Syrian Hamster, purified with protein G). CT26 cells were implanted into the flanks of 9 week female Balb/c mice. Mice were randomized into study groups based on the tumor sizes on day 6, and dosing of both Compound 1 and anti-CTLA-4 started on day 7. For the orthotopic pancreatic cancer model, KCM cells were implanted directly into the pancreas, and dosing of Compound 1 and anti-CTLA-4 also began on day 7. Compound 1 was dosed orally twice daily at 30 mg/kg, and anti-CTLA-4 was dosed IP on days 7, 11 and 15 at 100 μg/mouse.
As briefly described in Example 1, above, a KCM pancreatic cancer model was used to assess the effectiveness of a CCR4 inhibitor in combination with an anti-CTLA-4 antibody. The mice were broken into 4 groups (n=12 each group): isotype antibody+Vehicle; Isotype Antibody+Compound 1; anti-CTLA-4+Vehicle; anti-CTLA-4+Compound 1. The mice used were 7-8 week old C57BL/6 female mice. […]
After completion of the study, the tumor/pancreases weight for each group was measured. […]
Changes in suppressive immune cell populations were also measured at the completion of this study. […] Pancreas from sham-operated mice were processed and analyzed. […]

Turning to `C[C@@H](Nc1cc(C2CCN([C@H]3CCCN(CCC(=O)O)C3)CC2)ccc1Cl)c1ccc(Cl)cc1Cl` [Compound 1], the “Plasma compound concentrations at trough” value in data set [1] was “Adequate compound levels”. In the data set on KCM cells, the Spleen weight entry was “reduced”. Further, the “Tumor burden (tumor + pancreas weight)” value with KCM cells (Compound 1 bid, anti-CTLA-4 100 μg i.p.) is reported as “significantly reduced tumor burden”.
